Results taken from PubChem BioAssay AID330 (DTP/NCI, 2004).
“And” between values parts separate entries of the source, which are not always exact repeats. Identical values can stand only once. Toxic doses and inconclusive results are not listed.

Test system: P388 leukemia ip, CD2F1 mice, survival T/C
Test: NCI In Vivo Anticancer Drug Screen. Data for tumor model P388 Leukemia (intraperitoneal) in CD2F1 (CDF1) mice
Settings: endpoint: median survival time, higher = longer survival
In short: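 Mice carrying the transplanted tumor received test compound or vehicle. Survival was recorded in each group, and the value is the treated-group measurement divided by that of the vehicle-treated control group.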

[1] = dose: 50.0 mg/kg/injection, schedule: Q04DX003 (ip), vehicle: saline with Tween-80
[2] = dose: 100.0 mg/kg/injection, schedule: Q04DX003 (ip), vehicle: saline with Tween-80
[3] = dose: 200.0 mg/kg/injection, schedule: Q04DX003 (ip), vehicle: saline with Tween-80
[4] = dose: 50.0 mg/kg/injection, schedule: Q01DX009 (ip), vehicle: saline with Tween-80
[5] = dose: 100.0 mg/kg/injection, schedule: Q01DX009 (ip), vehicle: saline with Tween-80
[6] = dose: 200.0 mg/kg/injection, schedule: Q01DX009 (ip), vehicle: saline with Tween-80
[7] = dose: 50.0 mg/kg/injection, schedule: Q01DX009 (ip), vehicle: Klucel (hydroxypropylcellulose) (HPC)
[8] = dose: 100.0 mg/kg/injection, schedule: Q01DX009 (ip), vehicle: Klucel (hydroxypropylcellulose) (HPC)
[9] = dose: 200.0 mg/kg/injection, schedule: Q01DX009 (ip), vehicle: Klucel (hydroxypropylcellulose) (HPC)
[10] = dose: 12.5 mg/kg/injection, schedule: Q01DX005 (ip), vehicle: saline with Tween-80
[11] = dose: 12.5 mg/kg/injection, schedule: Q01DX009 (ip), vehicle: Klucel (hydroxypropylcellulose) (HPC)
[12] = dose: 25.0 mg/kg/injection, schedule: Q01DX009 (ip), vehicle: Klucel (hydroxypropylcellulose) (HPC)
[13] = dose: 100.0 mg/kg/injection, schedule: Q04DX003 (ip), vehicle: Klucel (hydroxypropylcellulose) (HPC)
[14] = dose: 25.0 mg/kg/injection, schedule: Q01DX009 (ip), vehicle: other
[15] = dose: 50.0 mg/kg/injection, schedule: Q01DX009 (ip), vehicle: other
[16] = dose: 100.0 mg/kg/injection, schedule: Q01DX009 (ip), vehicle: other
[17] = dose: 200.0 mg/kg/injection, schedule: Q01DX009 (ip), vehicle: other

For `CCCCOC(=O)CSSCC(=O)OCCCC`, the T/C [1] was 109 % of control, the T/C [2] was 109 % of control and the T/C [3] was 109 % of control.

In the case of `O=C1c2c(O)cc(O)cc2OC(c2ccc(O)cc2O)C1O` (centres undefined), the T/C (dose: 30.3 mg/kg/injection, schedule: Q01DX009 (ip), vehicle: saline) is reported as 98 % of control, the T/C (dose: 60.7 mg/kg/injection, schedule: Q01DX009 (ip), vehicle: saline) is reported as 100 % of control and the T/C (dose: 121.4 mg/kg/injection, schedule: Q01DX009 (ip), vehicle: saline) is reported as 103 % of control.

In the case of `CNC(=O)OC/C=C/c1ccccc1`, the T/C [4] is reported as 99 % of control, the T/C [5] is reported as 99 % of control and the T/C [6] is reported as 92 % of control.

`COc1cc(/C=C/[N+](=O)[O-])cc(Br)c1O` was tested, and the T/C (dose: 30.0 mg/kg/injection, schedule: Q01DX005 (ip), vehicle: saline with Tween-80) was 119 % of control, the T/C (dose: 60.0 mg/kg/injection, schedule: Q01DX005 (ip), vehicle: saline with Tween-80) was 110 % of control and 113 % of control and the T/C (dose: 120.0 mg/kg/injection, schedule: Q01DX005 (ip), vehicle: saline with Tween-80) was 102 % of control and 122 % of control.

For `CC[Si](C=C1CCCCC1)(CC)CC`, the T/C [7] was 101 % of control, the T/C [8] was 110 % of control and the T/C [9] was 109 % of control.

In the case of `CN(N=O)C(=O)Nc1c[nH]c(=O)[nH]c1=O`, the T/C (dose: 25.0 mg/kg/injection, schedule: Q01DX009 (ip), vehicle: saline sonified) is reported as 186 % of control, the T/C (dose: 25.0 mg/kg/injection, schedule: Q04DX003 (ip), vehicle: saline with Tween-80) is reported as 190 % of control and the T/C (dose: 50.0 mg/kg/injection, schedule: Q01DX009 (ip), vehicle: saline sonified) is reported as 200 % of control. The T/C [1] was 195 % of control, the T/C (dose: 66.0 mg/kg/injection, schedule: Q04DX003 (ip), vehicle: saline with Tween-80) was 163 % of control and the T/C [2] was 186 % of control and 190 % of control. The T/C (dose: 150.0 mg/kg/injection, schedule: Q04DX003 (ip), vehicle: saline with Tween-80) was 90 % of control.

With `C/C(=N\NC(=S)N1CCC(N2CCCCC2)CC1)c1ccccn1` the T/C (dose: 6.25 mg/kg/injection, schedule: Q01DX005 (ip), vehicle: saline with Tween-80) was 112 % of control and the T/C [10] was 113 % of control.

For `CCOC(=O)NN(C(=O)OCC)C(C(C)=O)C(C)=O`, the T/C (dose: 60.0 mg/kg/injection, schedule: Q01DX005 (ip), vehicle: Klucel (hydroxypropylcellulose) (HPC)) was 104 % of control, the T/C (dose: 120.0 mg/kg/injection, schedule: Q01DX005 (ip), vehicle: Klucel (hydroxypropylcellulose) (HPC)) was 101 % of control and the T/C (dose: 240.0 mg/kg/injection, schedule: Q01DX005 (ip), vehicle: Klucel (hydroxypropylcellulose) (HPC)) was 98 % of control.

For `O=C1C(Br)=C(Br)C(=O)c2c(Cl)ccc(O)c21`, the T/C [11] was 101 % of control, the T/C [12] was 98 % of control and the T/C [7] was 101 % of control and 105 % of control. For the same compound, the T/C [8] was 88 % of control and the T/C [9] was 100 % of control.

With `Cc1cccc(N=Nc2c(-c3ccccc3)nn(C(N)=S)c2-c2ccccc2)c1C` the T/C (dose: 73.9 mg/kg/injection, schedule: Q04DX002 (ip), vehicle: Klucel (hydroxypropylcellulose) (HPC)) was 96 % of control, the T/C (dose: 147.0 mg/kg/injection, schedule: Q04DX002 (ip), vehicle: Klucel (hydroxypropylcellulose) (HPC)) was 96 % of control and the T/C (dose: 295.0 mg/kg/injection, schedule: Q04DX002 (ip), vehicle: Klucel (hydroxypropylcellulose) (HPC)) was 100 % of control.

For `O=C1OCCOCCOCCOCCOC(=O)c2cccc1n2`, the T/C [13] was 105 % of control, the T/C (dose: 200.0 mg/kg/injection, schedule: Q04DX003 (ip), vehicle: Klucel (hydroxypropylcellulose) (HPC)) was 104 % of control and the T/C (dose: 400.0 mg/kg/injection, schedule: Q04DX003 (ip), vehicle: Klucel (hydroxypropylcellulose) (HPC)) was 102 % of control.

`CC(=O)OC1OC(/C=N\N(C)C)C(OCc2ccccc2)C(OCc2ccccc2)C1OC(C)=O` (centres undefined) was tested, and the T/C (dose: 3.12 mg/kg/injection, schedule: Q01DX005 (ip), vehicle: Klucel (hydroxypropylcellulose) (HPC)) was 95 % of control, the T/C (dose: 6.25 mg/kg/injection, schedule: Q01DX005 (ip), vehicle: Klucel (hydroxypropylcellulose) (HPC)) was 97 % of control and the T/C (dose: 6.25 mg/kg/injection, schedule: Q01DX009 (ip), vehicle: Klucel (hydroxypropylcellulose) (HPC)) was 104 % of control. For the same compound, the T/C (dose: 12.5 mg/kg/injection, schedule: Q01DX005 (ip), vehicle: Klucel (hydroxypropylcellulose) (HPC)) was 94 % of control, the T/C [11] was 92 % of control and the T/C [12] was 92 % of control. For the same compound, the T/C [14] was 92 % of control, the T/C [15] was 88 % of control and the T/C [16] was 94 % of control. The T/C [17] was 89 % of control.

With `C=CC(O)CN1CC1` (centres undefined) the T/C (dose: 0.75 mg/kg/injection, schedule: Q04DX003 (ip), vehicle: saline) was 122 % of control, the T/C (dose: 1.25 mg/kg/injection, schedule: Q01DX009 (ip), vehicle: saline) was 158 % of control and the T/C (dose: 2.5 mg/kg/injection, schedule: Q01DX009 (ip), vehicle: saline) was 113 % of control and 212 % of control. For the same compound, the T/C (dose: 3.0 mg/kg/injection, schedule: Q04DX003 (ip), vehicle: saline) was 181 % of control, the T/C (dose: 6.0 mg/kg/injection, schedule: Q04DX003 (ip), vehicle: saline) was 154 % of control and the T/C (dose: 10.0 mg/kg/injection, schedule: Q04DX003 (ip), vehicle: saline) was 154 % of control.

For `Nc1nccn2cnnc12`, the T/C (dose: 100.0 mg/kg/injection, schedule: Q01DX001 (ip), vehicle: Klucel (hydroxypropylcellulose) (HPC)) was 100 % of control, the T/C (dose: 200.0 mg/kg/injection, schedule: Q01DX001 (ip), vehicle: Klucel (hydroxypropylcellulose) (HPC)) was 104 % of control and the T/C (dose: 400.0 mg/kg/injection, schedule: Q01DX001 (ip), vehicle: Klucel (hydroxypropylcellulose) (HPC)) was 100 % of control.

For `NC(C(=O)O)C(O)c1ccc2c(c1)OCO2` (centres undefined), the T/C [2] was 100 % of control, the T/C [3] was 100 % of control and the T/C (dose: 400.0 mg/kg/injection, schedule: Q04DX003 (ip), vehicle: saline with Tween-80) was 100 % of control.

`O=C(Nc1ccc2c(c1)Cc1cc(NC(=O)C34CC5CC(CC(C5)C3)C4)ccc1-2)C12CC3CC(CC(C3)C1)C2` was tested, and the T/C (dose: 100.0 mg/kg/injection, schedule: Q04DX002 (ip), vehicle: saline with Tween-80) was 88 % of control, the T/C (dose: 200.0 mg/kg/injection, schedule: Q04DX002 (ip), vehicle: saline with Tween-80) was 89 % of control and the T/C (dose: 400.0 mg/kg/injection, schedule: Q04DX002 (ip), vehicle: saline with Tween-80) was 92 % of control.

For `CCCCCOP(=O)(N=[N+]=[N-])OCCCCC`, the T/C (dose: 0.78 mg/kg/injection, schedule: Q01DX009 (ip), vehicle: saline with Tween-80) was 98 % of control and the T/C (dose: 1.56 mg/kg/injection, schedule: Q01DX009 (ip), vehicle: saline with Tween-80) was 98 % of control.

In the case of `COc1ccc(NC(=O)c2ccc3c(c2)OCO3)cc1`, the T/C (dose: 12.5 mg/kg/injection, schedule: Q01DX009 (ip), vehicle: other) is reported as 108 % of control, the T/C [14] is reported as 103 % of control and the T/C [15] is reported as 94 % of control. For the same compound, the T/C [16] was 95 % of control and the T/C [17] was 91 % of control.

In the case of `CC(C)(C)c1cc(OS(=O)(=O)C(F)(F)C(F)(F)C(F)(F)C(F)(F)F)cc(C(C)(C)C)c1`, the T/C [4] is reported as 106 % of control, the T/C [5] is reported as 108 % of control and the T/C [6] is reported as 108 % of control.

`C/C(=C\CCC(C)C1CCC2(C)C3=C(CCC12C)C1(C)CCC(O)C(C)(C)C1CC3)C(=O)O` (centres undefined) was tested, and the T/C (dose: 12.5 mg/kg/injection, schedule: Q01DX005 (ip), vehicle: DMSO) was 103 % of control, the T/C (dose: 25.0 mg/kg/injection, schedule: Q01DX005 (ip), vehicle: DMSO) was 101 % of control and the T/C (dose: 50.0 mg/kg/injection, schedule: Q01DX005 (ip), vehicle: DMSO) was 88 % of control. The T/C (dose: 100.0 mg/kg/injection, schedule: Q01DX005 (ip), vehicle: DMSO) was 91 % of control.

With `CSc1nc(C)cc(N)n1` the T/C (dose: 12.5 mg/kg/injection, schedule: Q04DX003 (ip), vehicle: Klucel (hydroxypropylcellulose) (HPC)) was 115 % of control, the T/C (dose: 25.0 mg/kg/injection, schedule: Q04DX003 (ip), vehicle: Klucel (hydroxypropylcellulose) (HPC)) was 99 % of control and the T/C (dose: 50.0 mg/kg/injection, schedule: Q04DX003 (ip), vehicle: Klucel (hydroxypropylcellulose) (HPC)) was 99 % of control. For the same compound, the T/C [13] was 103 % of control.

In the case of `CC1CC(C(=O)c2ccoc2)C(=O)O1` (centres undefined), the T/C [10] is reported as 92 % of control, the T/C (dose: 25.0 mg/kg/injection, schedule: Q01DX005 (ip), vehicle: saline with Tween-80) is reported as 97 % of control and the T/C (dose: 50.0 mg/kg/injection, schedule: Q01DX005 (ip), vehicle: saline with Tween-80) is reported as 101 % of control and 91 % of control.
